The values that follow come from US10369340B2, “Device and method for sustained release of low water solubility therapeutic agent in solubilizer” (N[…], INC., priority 2013, dated 2019).

A short description of data set [1]: solubility of testosterone in water and in ethanol. Type of data set: physicochemical. The conditions noted are these: ethanol relative to water. An excerpt: During use, IDD 100 can be used to administer API 200 by inserting IDD 100 into an area of a human anatomy, including for example, subcutaneously. With IDD 100 inserted into the desired anatomical area, portions of solubilizer 210 (with dissolved API 200) that are small enough to pass through channeled member 130 can be released over time into the area of the human anatomy or for systemic circulation. In certain embodiments, the solubility enhancement of API 200 and solubilizer 210 can range from approximately 2×, 3×, 4×, 5×, 6×, 7×, 8×, 9×, 10×, 11×, 12×, 13×, 14×, 15×, 16×, 17×, 18×, 19×, 20×, 21×, 22×, 23×, 24×, 25×, 26×, 27×, 28×, 29×, 30× or higher. In particular embodiments, the solubility enhancement can be up to 1000× and higher.

For data set [2] the following is noted: cited from earlier work.

For the compound `C[C@]12CC[C@H]3[C@@H](CCC4=CC(=O)CC[C@@]43C)[C@@H]1CC[C@@H]2O` [testosterone], the “solubility enhancement (increase, ethanol vs water)” value in data set [1] is listed as 20,000 ×. Moreover, in data set [2] (ethanol), the solubility in ethanol entry is given as “approximately 750 mg/ml”. Also, the native water solubility in data set [2] (water) is 35 µg/mL.
